The results in this text go back to patent US20240327406A1, “POTASSIUM CHANNEL MODULATORS” (Autifony Therapeutics Limited, priority 2021, published 2024).

“And” between values parts separate entries of the source, which are not always exact repeats. Identical values can stand only once. Like-named read-outs stand apart in the source and are kept apart here.

The assay has as its target T1, human Kv3.1 channels (hKv3.1) (Homo sapiens, UniProt P48547).
T1 sequence (P48547 1-501 limits assumed): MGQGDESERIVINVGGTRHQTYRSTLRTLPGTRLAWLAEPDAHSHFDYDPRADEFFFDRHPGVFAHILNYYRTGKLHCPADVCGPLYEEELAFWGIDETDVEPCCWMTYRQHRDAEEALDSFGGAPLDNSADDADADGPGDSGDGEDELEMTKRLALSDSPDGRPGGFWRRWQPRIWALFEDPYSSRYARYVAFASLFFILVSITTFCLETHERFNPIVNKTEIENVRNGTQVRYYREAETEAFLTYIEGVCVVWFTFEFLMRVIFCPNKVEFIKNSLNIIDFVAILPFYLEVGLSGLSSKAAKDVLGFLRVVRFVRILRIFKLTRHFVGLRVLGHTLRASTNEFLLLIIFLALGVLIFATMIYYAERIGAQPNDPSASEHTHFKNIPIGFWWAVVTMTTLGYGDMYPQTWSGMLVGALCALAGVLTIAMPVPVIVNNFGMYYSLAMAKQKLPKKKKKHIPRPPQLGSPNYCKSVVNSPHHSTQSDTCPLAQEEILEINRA
The assay can be described thus: Measurement of Kv3 channel modulation: Kv3.1 assay (IonWorks Quattro whole-cell electrophysiology). Type of assay: cell-based. As to conditions: for Kv3.1 max R %: normalised to maximum effect of reference compound (50 microM); for EC50: read-out: Kv3.1 pEC50 (converted). On the technique in general: Patch clamp records ionic current or voltage across a cell membrane.

Where [1] appears, read: Table 2, Example compounds, rounded to one decimal place, some compounds with two data sets (n given in cell).

In the case of `Cc1ccc(Oc2ccc(-n3c(=O)[nH]c4cccnc43)cn2)cc1OC(F)(F)F` [Example 4, 3-[6-[4-methyl-3-(trifluoromethoxy)phenoxy]-3-pyridyl]-1H-imidazo[4,5-b]pyridin-2-one], the “Kv3.1 max R %” value (Table 2, Example compounds) is given as 111%. The EC50 was 1260 nM under setting [1] and 1260 nM (Table 5, Example compounds).

Turning to `O=c1[nH]c2cccnc2n1-c1cnc(Oc2cccc(OC(F)(F)F)c2)nc1` [Example 17, 3-[2-[3-(trifluoromethoxy)phenoxy]pyrimidin-5-yl]-1H-imidazo[4,5-b]pyridin-2-one], under “Table 2, Example compounds”, the “Kv3.1 max R %” value was 103% and 125%. Moreover, the EC50 runs as follows: under setting [1], 1260 nM; (Table 5, Example compounds) 1000 nM.

For `Cc1ccc(Oc2ncc(-n3c(=O)[nH]c4cccnc43)cn2)cc1OC(F)(F)F` [Example 32, 3-[2-[4-methyl-3-(trifluoromethoxy)phenoxy]pyrimidin-5-yl]-1H-imidazo[4,5-b]pyridin-2-one], the “Kv3.1 max R %” value (Table 2, Example compounds) is on record as 174%. Moreover, the EC50 reads like this: under setting [1], 1580 nM; (Table 5, Example compounds) 1580 nM.
